The text below walks through data of patent US20120141601A1, “DIETARY SUPPLEMENT, FEED AND PHARMACEUTICAL COMPOSITION CONTAINING CHIA SEED AND MACA, AND PREPARATION METHOD THEREOF” (priority 2009, published 2012).

Common to all, as to format: in vivo, Sprague-Dawley male rats
A short description of experiment [1]: Locomotor activity, open field test. The procedure: (§1) Sprague-Dawley male rats (Orientbio) were divided into groups of six which were then administered for 26 days with neither alcohol nor the extracts for the normal group, with alcohol but not with extracts for the control group, with alcohol and 1% by weight octacosanol, with alcohol and 1% by weight chia seeds, with alcohol and 0.5% by weight maca, and with alcohol and a mixture of 1% by weight chia seeds and 0.5% by weight maca, respectively. Typical feedstuff was fed, together with water, to the normal group and, together with 25% alcohol, to the control group while the feedstuff for the other groups contained the test substances as described above.
The locomotor activities of the groups set in Test Example 3 were measured in an open field test chamber (38.0 cm×26.0 cm×42.0 cm; LETICA, SPAIN). Horizontal activity was recorded by an IR detector for 10 min To investigate the effects that chia seeds and maca (extract), used as active ingredients in the composition of the present invention, had on locomotor activity, measurements of the horizontal activity were analyzed. The horizontal activity was 1179.2±21.2 cm for the normal group, but […] for the control group, which was decreased by about 75% compared to the normal. […]

The subject of experiment [2] is alcohol dehydrogenase. Nature of the experiment: Hepatic alcohol dehydrogenase activity in liver homogenate. The conditions noted are these: liver homogenate supernatant, absorbance at 340 nm; groups of Test Example 3. The procedure:
as §1
(§2) In order to investigate the effect of the composition of the present invention on alcoholysis enzymes, the rats of the test groups set in Test Example 3 were anesthetized with chloroform and subjected to ventrotomy to excise the liver. The liver tissue was homogenized in 10 volumes of 100 mM sodium phosphate buffer, pH 7.4, using a homogenizer and then disrupted with an ultrasonicator. Centrifugation at 700 G for […] removed nuclei and cell debris. After centrifugation at 9,000 G for 20 min, the supernatant was measured for hepatic alcohol dehydrogenase and aldehyde dehydrogenase activity. The protein concentration of the supernatant was determined using a BCA kit and used to normalize the amount of liver tissue between test groups. […]

Experiment [3] can be described thus: Rotarod performance test for space perception and endurance. As to the method: as §1
The groups set in Test Example 3 were measured for space perception activity by the rotarod performance test which was conducted for 5 min for each rat with the cylinder (380×260×420 mm) of rotarod LE8300 (LETICA, SPAIN) rotating at a speed of 4 to 40 rpm. Cases in which the rats fell on the ground within 20 sec after starting were excluded from the measurement.
To investigate the effect of chia seeds and maca (extract), used as active ingredients in the composition of the present invention, on space perception and endurance, measurements of the rotarod performance test were analyzed. […] In contrast, the time was 98.16±11.35 sec for octacosanol-administered group, 151.50±5.08 sec for the chia seed-administered group, 215.33±13.14 sec for the maca-administered group and 240.66±39.30 sec for the group co-administered with chia seeds and maca, which were increased by 3, 5, 7, and 8 times, respectively, compared to the control group. As apparent from the data of the rotarod performance test, space perception and endurance were enhanced by octacosanol, chia seeds, maca, and a combination of chia seeds and maca, and most increased, inter alia, by the mixture of chia seeds and maca (FIG. 6, Table 2).
Background: Falling from the rotarod earlier than controls is read as motor impairment.

In experiment [4] the test system is high-density lipoproteins. Nature of the experiment: High-density lipoprotein level in whole blood. Conditions: 25% alcohol daily for 25 days, whole blood from the heart. The procedure:
as §1
(§3) After the rats of the test groups set in Test Example 3 were administered with 25% alcohol every day for 25 days, blood samples were taken from the tail vein and measured for testosterone level using enzyme immunoassay (Roche, USA). The levels of testosterone and high-density lipoproteins in the whole blood taken from the heart were measured in Eone Reference Laboratory.
To investigate the effect of chia seeds and maca (extract), used as active ingredients in the composition of the present invention, on penile function, the levels of high-density lipoproteins were analyzed. […]

The test system of experiment [5] is testosterone. Nature of the experiment: Testosterone level in whole blood. Conditions: 25% alcohol daily for 25 days, whole blood from the heart. The procedure:
as §1, §3
To investigate the effect of chia seeds and maca (extract), used as active ingredients in the composition of the present invention, on testosterone activity, the levels of testosterone in whole blood were analyzed. […]

Experiment [6] in a line: Blood alcohol concentration. The procedure:
as §1
Blood alcohol concentrations were measured after the rats were administered 25% alcohol every day for 30 days. In this regard, blood samples were taken from the tail vein of the rats of the test groups set in Test Example 3 at 6 P.M. every five days, and blood alcohol concentrations were determined using an alcohol tester (Asia Commerce Co. Ltd., Model No. LION SD-400).
To investigate the effect of chia seeds and maca (extract), used as active ingredients in the composition of the present invention, on the degradation of blood alcohol, measurements of the blood alcohol concentration were analyzed. The blood alcohol concentration was 0% for the normal group and 0.06% for the control group. […]

In experiment [7] the test system is aldehyde dehydrogenase. Nature of the experiment: Hepatic aldehyde dehydrogenase activity in liver homogenate. Conditions: liver homogenate supernatant, absorbance at 340 nm; groups of Test Example 3. The procedure:
as §1, §2

Experiment [8] can be described thus: Endurance test, weighted swimming in bath. As to the method: as §1
A swimming experiment was conducted in a transparent acryl bath (with a dimension of length 80 cm×width 50 cm×depth 90 cm) ⅔ filled with water maintained at 24° C. The Sprague-Dawley male rats (Orientbio) were allowed to freely swim with a weight equivalent to 8˜10% of their body weight suspended from the abdomen thereof. Measurements were made of the time it took for the rat to swim to a point at which the head was submerged for 10 sec or longer below the water surface (Hong, S. G., J. Kor. Food Sci. Nutr. 32(7), 1076 (2003)).
To investigate the effects of chia seeds and maca (extract), used as active ingredients in the composition of the present invention, on endurance, measurements of the swing time were analyzed. The swimming time was measured to be 306.33±6.21 sec for the normal group, but 147.16±21.71 sec for the control group, which was equivalent to about 46% of that of the normal group. In contrast, 352.66±34.69 sec was measured for the octacosanol-administered group, 355.66±34.62 sec for the chia seed-administered group, 476.00±45.56 sec for the maca-administered group, and 527.83±25.57 sec for the group co-administered with chia seeds and mace, which were increased by 2.4, 2.4, 3.2 and 3.5 times, compared to the control group. […]

With `CCCCCCCCCCCCCCCCCCCCCCCCCCCCO` [octacosanol], the horizontal activity in experiment [1] (open field, IR detector, 10 min, groups of Test Example 3) was 240.2±12.3 cm. For the same molecule, the “increase of horizontal activity compared to the control group” value in experiment [1] (vs alcohol control group) came to 8 times. This molecule had an alcohol dehydrogenase activity in experiment [2] of 8.9±0.8 mmole/min/mg protein. Further, in experiment [3] (Table 2, rotarod performance test), the time on rotarod was found to be 98.16 ± 11.35 s. Besides, in experiment [3] (rotarod 4 to 40 rpm, 5 min, groups of Test Example 3), the “time that the rats stayed on the rotating cylinder” value worked out at 98.16 ± 11.35 s. For the same molecule, in experiment [3] (vs alcohol control group), the “increase of time on rotating cylinder compared to the control group” value is 3 times. In addition, the “level of high-density lipoproteins” value in experiment [4] amounted to 32.5 ± 1.5 mg/dL. In addition, the “level of testosterone in whole blood” value in experiment [5] stood at 195 ± 62.2 ng/dL. The same molecule yielded a blood alcohol concentration in experiment [6] (25% alcohol daily for 30 days, tail vein blood, groups of Test Example 3) of 0.034%. Besides, the “decrease of blood alcohol concentration compared to the control group” value in experiment [6] (vs alcohol control group) was 55%. This molecule also came in with an aldehyde dehydrogenase activity in experiment [7] of 9.8±1.4 mmole/min/mg protein. Moreover, the swimming time came out at 352.66 ± 34.69 s in experiment [8] (26 days, alcohol plus 1% octacosanol, 1% chia seeds, 0.5% maca or 1% chia seeds + 0.5% maca in feed, weight 8-10% of body weight) and 352.66 ± 34.69 s in experiment [8] (Table 1, endurance test with swimming in bath). The “increase of swimming time compared to the control group” value in experiment [8] (vs alcohol control group) is 2.4 times.
